From patent publication US11642344B2, “Cholesteryl ester transfer protein (CETP) inhibitor and pharmaceutical compositions comprising said inhibitor for use in the treatment or prevention of cardiovascular diseases” (NewAmsterdam Pharma B.V., priority 2014, dated 2023)

Assays:
[1] = test system: HDL-C, LDL-C, total cholesterol, triglycerides; experiment: Clinical repeated dose study: HDL-C, LDL-C, total cholesterol, triglycerides and secondary lipid variables; type: in vivo, human; details: for Maximum % change from baseline in HDL-C concentration / Maximum % change from baseline in LDL-C concentration / Maximum % change from baseline in Total cholesterol / Maximum % change from baseline in Triglycerides: repeated oral doses, steady state, mean
Experimental: The clinical study was a repeated dose study in 5 groups of Caucasian male subjects aged 18 to 55 years. Each subject received a single oral dose of Compound A/placebo on Day 1, followed by once daily doses on Days 8 to 35 (5 mg Compound A/placebo—Group 1) or Days 8 to 28 (1, 2.5, 10 and 25 mg Compound A/placebo—Groups 2 to 5). All doses were administered at the study center after a standard breakfast. Subjects in each dose group were allocated to study treatment in a ratio of 10 Compound A to 2 placebo. Blood samples for pharmacokinetic and pharmacodynamic (CETP activity, CETP concentration, HDL-C, LDL-C, total cholesterol, triglycerides) assessments were collected from prior to each dose and at intervals throughout the study until 336 hours after the last dose. Secondary pharmacodynamic endpoints (including apolipoproteins A1, A2, B, and E, HDL2-C, HDL3-C, phospholipids, HDL-free cholesterol [HDL-FC], HDL-cholesteryl ester [HDL-CE], HDL-phospholipids [HDL-PL], HDL-triglycerides [HDL-TG], and LDL particle size) were measured at intervals until the last day of dosing. Urine was collected for pharmacokinetics from pre dose and at intervals up to 72 hours after the first and last dose. Safety assessments including adverse events, blood pressure and pulse rate, ECGs, laboratory safety tests (including aldosterone) and physical examinations were conducted throughout both studies.
Plasma and urine concentrations of Compound A were determined using validated liquid chromatography with tandem mass spectrometry (LC/MS/MS) methods. The lower limit of quantification (LLQ) for both assays was 0.500 ng/mL. Plasma concentration of CETP was determined using a validated enzyme-linked immunosorbent assay (ELISA) method with a lower limit of quantification (LLQ) of 0.500 μg/mL. CETP activity was determined as the rate of [^3H]-labeled CE transfer from donor HDL to acceptor VLDL/LDL. [^3H]CE-labeled HDL was added to human plasma and incubated for 4 hours at 37° C. Non-HDL lipoproteins were precipitated and separated from HDL, and the amount of radioactivity in the supernatant was quantitated. CETP activity was determined as the difference of the radioactivity between the samples incubated at 37° C. and 4° C. HDL-C and LDL-C were measured by homogenous enzymatic colorimetric assay using a Modular analyser (Roche Diagnostics). Total cholesterol and triglycerides were measured by homogenous enzymatic assay using a Modular analyser (cholesterol oxidase peroxidase-peroxidase aminophenazone phenol [CHOP-PAP]) method and a glycerol phosphate oxidase [GPO-PAP] method, respectively. ApoA1, ApoA2, ApoB and ApoE were measured by immunoturbidimetry using reagents from Rolf Greiner Biochemica (Germany) and N-apoprotein standard serum from Siemens (Germany). LDL particle size was determined by gradient gel electrophoresis. HDL fraction was separated by a combined ultracentrifugation-precipitation method (Beta-quantification). HDL-2 and HDL-3 fractions were then separated by further ultracentrifugation. Total-cholesterol in HDL, HDL-2 and HLD-3 fractions, free cholesterol in HDL fraction, triglycerides in HDL fraction and phospholipids in plasma and HDL-fraction were measured using enzymatic methods and reagents from Diasys Diagnostics (Germany). The measurements were performed on an Olympus AU600 automatic analyzer and were calibrated using secondary standards from Roche Diagnostics (Total-cholesterol, triglycerides) and Diasys Diagnostics (free cholesterol, phospholipids), respectively. Esterified cholesterol was calculated as the difference between total-cholesterol and free cholesterol.
The sample sizes for the study were chosen based on practical considerations rather than statistical power. The numbers of subjects in each group were considered to be adequate to assess the main objectives of each study. Subjects were allocated to Compound A or placebo in each group by means of a computer-generated randomization code. […]

[2] = test system: CETP; experiment: Ex vivo serum CETP activity after oral administration to hamsters; set-up: species or system Syrian Golden hamsters; details: 3 mg/kg oral, suspension in 0.5% CMC, serum 3 hours after administration
Experimental: Syrian Golden hamsters were used for the experiment after 1-week acclimatization. After an overnight fast, animals were orally given the compound suspension in 0.5% sodium carboxymethylcellulose in a volume of 10 mL/kg. Under deep anesthesia with ether, blood was collected from the abdominal aorta 3 hours after the administration. For preparation of serum, the collected blood was transferred to a plastic tube containing a clot activator, left still for 15 minutes at room temperature and centrifuged. Serum CETP activities were determined immediately.
Ninety-five μL serum were added to 5 μL of […] sodium phosphate buffered saline (pH 7.0) containing 1.5 mM 5,5′-dithio-bis(2-nitrobenzoic acid) in two 96-well V-bottom plates. One plate was incubated at 4° C. and the other was incubated at 37° C. After 18 hours of incubation, each sample was mixed with 100 μL of reagent for precipitation of apolipoprotein B-containing lipoproteins (phosphotungstate/MgCl2 reagent, Wako pure chemical), left still for 10 minutes at room temperature and centrifuged. Total cholesterol (TC) and free cholesterol (FC) in supernatant were measured using commercial kits (Cholesterol E-test wako, and Free Cholesterol E-test wako; Wako pure chemical). Cholesteryl ester (CE) was calculated by subtracting FC from TC. CETP activity was determined by the following formula: CETP activity=[CETP transfer]*/[CE value in 4° C. incubation sample] *CETP transfer=[CE value in 4° C. incubation sample]−[CE value in 37° C. incubation sample] (c) Results

Which results are given for `CCOC(=O)N1c2ccc(C(F)(F)F)cc2[C@@H](N(Cc2cc(C(F)(F)F)cc(C(F)(F)F)c2)c2ncc(OCCCC(=O)O)cn2)C[C@H]1CC` [Compound A, {4-[(2-{[3,5-bis(trifluoromethyl)benzyl][(2R,4S)-1-(ethoxycarbonyl)-2-ethyl-6-(trifluoromethyl)-1,2,3,4-tetrahydroquinolin-4-yl]amino}pyrimidin-5-yl)oxy]butanoic acid}]?
Maximum % change from baseline in HDL-C concentration ([1]; 1 mg once daily): 37.9%; Maximum % change from baseline in LDL-C concentration ([1]; 1 mg once daily): −29.6%; Maximum % change from baseline in Total cholesterol ([1]; 1 mg once daily): −12.7%; Maximum % change from baseline in Triglycerides ([1]; 1 mg once daily): −50.2%; Maximum % change from baseline in HDL-C concentration ([1]; 2.5 mg once daily): 95.6%; Maximum % change from baseline in LDL-C concentration ([1]; 2.5 mg once daily): −39.1%; Maximum % change from baseline in Total cholesterol ([1]; 2.5 mg once daily): −7.9%; Maximum % change from baseline in Triglycerides ([1]; 2.5 mg once daily): −45.8%; Maximum % change from baseline in HDL-C concentration ([1]; 5 mg once daily): 118%; Maximum % change from baseline in LDL-C concentration ([1]; 5 mg once daily): −41.7%; Maximum % change from baseline in Total cholesterol ([1]; 5 mg once daily): −1.4%; Maximum % change from baseline in Triglycerides ([1]; 5 mg once daily): −20.3%; Maximum % change from baseline in HDL-C concentration ([1]; 10 mg once daily): 140%; Maximum % change from baseline in LDL-C concentration ([1]; 10 mg once daily): −43.6%; Maximum % change from baseline in Total cholesterol ([1]; 10 mg once daily): 3.7%; Maximum % change from baseline in Triglycerides ([1]; 10 mg once daily): −22.2%; Maximum % change from baseline in HDL-C concentration ([1]; 25 mg once daily): 136%; Maximum % change from baseline in LDL-C concentration ([1]; 25 mg once daily): −53.2%; Maximum % change from baseline in Total cholesterol ([1]; 25 mg once daily): 7.5%; Maximum % change from baseline in Triglycerides ([1]; 25 mg once daily): −31.4%; changes in LDL particle size ([1]; repeated doses 1 to 25 mg): no noteworthy changes; ex vivo (% inhibition) 3 mg/kg (CMC) [2]: 79.2%
